# Results taken from ChEMBL document CHEMBL4507324 (2021).
# pIC50: −log10 of the molar value.
# Legend:
# [1] = target: Mitogen-activated protein kinase 11 (Homo sapiens, UniProt Q15759); assay: NanoBRET (SGC-Frankfurt) (MAPK11)
# [2] = target: Tyrosine-protein kinase ABL1 (Homo sapiens) (UniProt P00519); settings: Compound concentration 100.0 nM
# [3] = target: Ribosomal protein S6 kinase alpha-5 (Homo sapiens) (UniProt O75582); settings: Compound concentration 100.0 nM
# [4] = target: Serine/threonine-protein kinase PAK 3 (Homo sapiens) (UniProt O75914); settings: Compound concentration 100.0 nM
# [5] = target: Phosphatidylinositol 4-phosphate 5-kinase type-1 alpha (Homo sapiens) (UniProt Q99755); settings: Compound concentration 100.0 nM
# [6] = target: Cyclin-dependent kinase 8 (Homo sapiens) (UniProt P49336); settings: Compound concentration 100.0 nM
# [7] = target: Serine/threonine-protein kinase pim-2 (Homo sapiens) (UniProt Q9P1W9); settings: Compound concentration 100.0 nM
# [8] = target: Mitogen-activated protein kinase kinase kinase 5 (Homo sapiens) (UniProt Q99683); settings: Compound concentration 100.0 nM
# [9] = target: Activin receptor type-1 (Homo sapiens) (UniProt Q04771); settings: Compound concentration 100.0 nM
# [10] = target: Serine/threonine-protein kinase 10 (Homo sapiens) (UniProt O94804); settings: Compound concentration 100.0 nM
# [11] = target: Serine/threonine-protein kinase BRSK1 (Homo sapiens) (UniProt Q8TDC3); settings: Compound concentration 100.0 nM
# [12] = target: Mitogen-activated protein kinase 6 (Homo sapiens) (UniProt Q16659); settings: Compound concentration 100.0 nM
# [13] = target: Tyrosine-protein kinase ABL2 (Homo sapiens) (UniProt P42684); settings: Compound concentration 100.0 nM
# [14] = target: High affinity nerve growth factor receptor (Homo sapiens) (UniProt P04629); settings: Compound concentration 100.0 nM
# [15] = target: Phosphatidylinositol 5-phosphate 4-kinase type-2 gamma (Homo sapiens) (UniProt Q8TBX8); settings: Compound concentration 100.0 nM
# [16] = target: Mitogen-activated protein kinase 14 (Homo sapiens) (UniProt Q16539); settings: Compound concentration 100.0 nM
# [17] = target: Aurora kinase C (Homo sapiens) (UniProt Q9UQB9); settings: Compound concentration 100.0 nM
# [18] = target: Mitogen-activated protein kinase 12 (Homo sapiens) (UniProt P53778); settings: Compound concentration 100.0 nM
# [19] = target: 5-hydroxytryptamine receptor 2A (Homo sapiens) (UniProt P28223); settings: Compound concentration 10.0 uM
# [20] = target: Serine/threonine-protein kinase B-raf (Homo sapiens, UniProt P15056); assay: NanoBRET (SGC-Frankfurt) (BRAF)
# [21] = target: Muscarinic acetylcholine receptor M1 (Homo sapiens) (UniProt P11229); settings: Compound concentration 10.0 uM
# [22] = target: Muscarinic acetylcholine receptor M3 (Homo sapiens) (UniProt P20309); settings: Compound concentration 10.0 uM
# [23] = target: Alpha-2A adrenergic receptor (Homo sapiens) (UniProt P08913); settings: Compound concentration 10.0 uM
# [24] = target: Alpha-1D adrenergic receptor (Homo sapiens) (UniProt P25100); settings: Compound concentration 10.0 uM
# [25] = target: GABA-A receptor; anion channel (Rattus norvegicus) (UniProt O09028+P15431+P18506+P18508+P19969+P20236+P23574+P23576+P28471+P28473+P30191+P62813+P63079+P63138+Q91ZM7+Q9ES14); settings: Compound concentration 10.0 uM
# [26] = target: Serine/threonine-protein kinase 38-like (Homo sapiens, UniProt Q9Y2H1); assay: NanoBRET (SGC-Frankfurt) (STK38L)
# [27] = target: Beta-1 adrenergic receptor (Homo sapiens) (UniProt P08588); settings: Compound concentration 10.0 uM
# [28] = target: 5-hydroxytryptamine receptor 2C (Homo sapiens) (UniProt P28335); settings: Compound concentration 10.0 uM
# [29] = target: Histamine H4 receptor (Homo sapiens) (UniProt Q9H3N8); settings: Compound concentration 10.0 uM
# [30] = target: 5-hydroxytryptamine receptor 1D (Homo sapiens) (UniProt P28221); settings: Compound concentration 10.0 uM
# [31] = target: Sodium-dependent noradrenaline transporter (Homo sapiens) (UniProt P23975); settings: Compound concentration 10.0 uM
# [32] = target: Muscarinic acetylcholine receptor M4 (Homo sapiens) (UniProt P08173); settings: Compound concentration 10.0 uM
# [33] = species on record: Rattus norvegicus; settings: Compound concentration 10.0 uM
# [34] = target: 5-hydroxytryptamine receptor 2B (Homo sapiens) (UniProt P41595); settings: Compound concentration 10.0 uM
# [35] = target: Alpha-2C adrenergic receptor (Homo sapiens) (UniProt P18825); settings: Compound concentration 10.0 uM
# [36] = target: Kappa-type opioid receptor (Homo sapiens) (UniProt P41145); settings: Compound concentration 10.0 uM
# [37] = target: 5-hydroxytryptamine receptor 3A (Homo sapiens) (UniProt P46098); settings: Compound concentration 10.0 uM
# [38] = target: Muscarinic acetylcholine receptor M2 (Homo sapiens) (UniProt P08172); settings: Compound concentration 10.0 uM
# [39] = target: D(3) dopamine receptor (Homo sapiens) (UniProt P35462); settings: Compound concentration 10.0 uM
# [40] = target: D(1A) dopamine receptor (Homo sapiens) (UniProt P21728); settings: Compound concentration 10.0 uM
# [41] = target: Sigma non-opioid intracellular receptor 1 (Homo sapiens) (UniProt Q99720); settings: Compound concentration 10.0 uM
# [42] = target: D(2) dopamine receptor (Homo sapiens) (UniProt P14416); settings: Compound concentration 10.0 uM
# [43] = target: Alpha-1A adrenergic receptor (Homo sapiens) (UniProt P35348); settings: Compound concentration 10.0 uM
# [44] = target: Histamine H1 receptor (Homo sapiens) (UniProt P35367); settings: Compound concentration 10.0 uM
# [45] = target: 5-hydroxytryptamine receptor 7 (Homo sapiens) (UniProt P34969); settings: Compound concentration 10.0 uM
# Sequence of Serine/threonine-protein kinase BRSK1 (Homo sapiens) (Q8TDC3 whole entry): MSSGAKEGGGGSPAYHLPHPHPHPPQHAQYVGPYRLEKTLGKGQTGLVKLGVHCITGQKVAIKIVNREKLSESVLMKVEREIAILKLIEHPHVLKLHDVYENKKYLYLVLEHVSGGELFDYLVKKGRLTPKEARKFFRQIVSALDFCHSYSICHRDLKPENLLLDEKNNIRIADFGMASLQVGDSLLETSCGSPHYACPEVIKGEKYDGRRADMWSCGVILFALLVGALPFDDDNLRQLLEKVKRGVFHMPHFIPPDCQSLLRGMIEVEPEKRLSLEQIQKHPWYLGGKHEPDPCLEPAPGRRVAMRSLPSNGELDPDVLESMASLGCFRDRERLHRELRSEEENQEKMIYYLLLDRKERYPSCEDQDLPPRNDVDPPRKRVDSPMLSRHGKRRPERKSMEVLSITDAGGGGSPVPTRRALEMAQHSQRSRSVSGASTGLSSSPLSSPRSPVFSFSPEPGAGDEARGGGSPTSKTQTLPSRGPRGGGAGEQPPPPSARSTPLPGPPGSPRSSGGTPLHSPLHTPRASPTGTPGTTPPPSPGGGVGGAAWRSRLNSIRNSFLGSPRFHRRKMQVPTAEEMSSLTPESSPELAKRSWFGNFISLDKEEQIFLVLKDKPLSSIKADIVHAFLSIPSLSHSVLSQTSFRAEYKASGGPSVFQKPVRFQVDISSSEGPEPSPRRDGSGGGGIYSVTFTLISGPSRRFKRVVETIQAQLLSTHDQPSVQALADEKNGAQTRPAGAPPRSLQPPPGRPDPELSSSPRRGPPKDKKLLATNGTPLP
# Sequence of Phosphatidylinositol 5-phosphate 4-kinase type-2 gamma (Homo sapiens) (Q8TBX8 whole entry): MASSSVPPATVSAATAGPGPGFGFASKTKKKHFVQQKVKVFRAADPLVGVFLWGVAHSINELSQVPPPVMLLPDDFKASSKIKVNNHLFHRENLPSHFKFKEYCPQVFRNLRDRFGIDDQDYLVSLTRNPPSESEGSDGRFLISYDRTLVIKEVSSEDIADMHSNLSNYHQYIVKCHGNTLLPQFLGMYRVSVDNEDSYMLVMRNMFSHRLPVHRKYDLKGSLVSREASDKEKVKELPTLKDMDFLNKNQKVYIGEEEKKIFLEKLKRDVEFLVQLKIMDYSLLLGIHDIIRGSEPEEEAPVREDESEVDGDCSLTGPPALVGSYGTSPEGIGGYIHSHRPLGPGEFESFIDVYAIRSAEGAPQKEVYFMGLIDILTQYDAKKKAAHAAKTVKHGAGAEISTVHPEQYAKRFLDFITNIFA
# Sequence of Cyclin-dependent kinase 8 (Homo sapiens) (P49336 whole entry): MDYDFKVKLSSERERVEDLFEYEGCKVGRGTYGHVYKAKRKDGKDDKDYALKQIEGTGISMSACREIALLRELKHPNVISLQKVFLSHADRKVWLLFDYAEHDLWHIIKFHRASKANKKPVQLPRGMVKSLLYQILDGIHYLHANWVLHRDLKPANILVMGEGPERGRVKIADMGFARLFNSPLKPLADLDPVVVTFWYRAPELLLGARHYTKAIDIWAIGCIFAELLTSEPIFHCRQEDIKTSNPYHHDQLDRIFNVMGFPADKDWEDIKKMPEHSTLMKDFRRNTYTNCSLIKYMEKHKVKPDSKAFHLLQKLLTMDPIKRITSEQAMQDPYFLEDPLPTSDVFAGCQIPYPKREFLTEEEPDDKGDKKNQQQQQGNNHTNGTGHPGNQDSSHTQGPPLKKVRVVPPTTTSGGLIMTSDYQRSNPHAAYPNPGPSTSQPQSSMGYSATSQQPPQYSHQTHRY
# Sequence of Mitogen-activated protein kinase 6 (Homo sapiens) (Q16659 whole entry): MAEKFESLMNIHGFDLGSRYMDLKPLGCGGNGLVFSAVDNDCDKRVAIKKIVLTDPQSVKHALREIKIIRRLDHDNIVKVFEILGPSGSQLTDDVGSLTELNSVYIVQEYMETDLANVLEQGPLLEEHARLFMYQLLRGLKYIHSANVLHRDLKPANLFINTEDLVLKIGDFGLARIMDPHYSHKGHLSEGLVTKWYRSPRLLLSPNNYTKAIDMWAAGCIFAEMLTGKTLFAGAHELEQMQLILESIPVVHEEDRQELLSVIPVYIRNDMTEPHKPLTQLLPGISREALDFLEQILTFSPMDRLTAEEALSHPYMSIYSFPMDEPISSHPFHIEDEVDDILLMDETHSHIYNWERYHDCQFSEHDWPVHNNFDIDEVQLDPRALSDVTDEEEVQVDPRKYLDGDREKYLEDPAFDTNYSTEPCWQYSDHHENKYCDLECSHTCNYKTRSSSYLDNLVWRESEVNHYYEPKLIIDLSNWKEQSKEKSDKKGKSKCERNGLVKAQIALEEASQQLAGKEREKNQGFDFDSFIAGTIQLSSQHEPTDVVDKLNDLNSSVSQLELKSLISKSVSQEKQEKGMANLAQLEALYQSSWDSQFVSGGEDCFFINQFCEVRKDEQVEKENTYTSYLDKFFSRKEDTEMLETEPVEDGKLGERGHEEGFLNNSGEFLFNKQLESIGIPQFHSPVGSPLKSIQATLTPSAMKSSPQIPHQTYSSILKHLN
# Sequence of Mitogen-activated protein kinase kinase kinase 5 (Homo sapiens) (Q99683 whole entry): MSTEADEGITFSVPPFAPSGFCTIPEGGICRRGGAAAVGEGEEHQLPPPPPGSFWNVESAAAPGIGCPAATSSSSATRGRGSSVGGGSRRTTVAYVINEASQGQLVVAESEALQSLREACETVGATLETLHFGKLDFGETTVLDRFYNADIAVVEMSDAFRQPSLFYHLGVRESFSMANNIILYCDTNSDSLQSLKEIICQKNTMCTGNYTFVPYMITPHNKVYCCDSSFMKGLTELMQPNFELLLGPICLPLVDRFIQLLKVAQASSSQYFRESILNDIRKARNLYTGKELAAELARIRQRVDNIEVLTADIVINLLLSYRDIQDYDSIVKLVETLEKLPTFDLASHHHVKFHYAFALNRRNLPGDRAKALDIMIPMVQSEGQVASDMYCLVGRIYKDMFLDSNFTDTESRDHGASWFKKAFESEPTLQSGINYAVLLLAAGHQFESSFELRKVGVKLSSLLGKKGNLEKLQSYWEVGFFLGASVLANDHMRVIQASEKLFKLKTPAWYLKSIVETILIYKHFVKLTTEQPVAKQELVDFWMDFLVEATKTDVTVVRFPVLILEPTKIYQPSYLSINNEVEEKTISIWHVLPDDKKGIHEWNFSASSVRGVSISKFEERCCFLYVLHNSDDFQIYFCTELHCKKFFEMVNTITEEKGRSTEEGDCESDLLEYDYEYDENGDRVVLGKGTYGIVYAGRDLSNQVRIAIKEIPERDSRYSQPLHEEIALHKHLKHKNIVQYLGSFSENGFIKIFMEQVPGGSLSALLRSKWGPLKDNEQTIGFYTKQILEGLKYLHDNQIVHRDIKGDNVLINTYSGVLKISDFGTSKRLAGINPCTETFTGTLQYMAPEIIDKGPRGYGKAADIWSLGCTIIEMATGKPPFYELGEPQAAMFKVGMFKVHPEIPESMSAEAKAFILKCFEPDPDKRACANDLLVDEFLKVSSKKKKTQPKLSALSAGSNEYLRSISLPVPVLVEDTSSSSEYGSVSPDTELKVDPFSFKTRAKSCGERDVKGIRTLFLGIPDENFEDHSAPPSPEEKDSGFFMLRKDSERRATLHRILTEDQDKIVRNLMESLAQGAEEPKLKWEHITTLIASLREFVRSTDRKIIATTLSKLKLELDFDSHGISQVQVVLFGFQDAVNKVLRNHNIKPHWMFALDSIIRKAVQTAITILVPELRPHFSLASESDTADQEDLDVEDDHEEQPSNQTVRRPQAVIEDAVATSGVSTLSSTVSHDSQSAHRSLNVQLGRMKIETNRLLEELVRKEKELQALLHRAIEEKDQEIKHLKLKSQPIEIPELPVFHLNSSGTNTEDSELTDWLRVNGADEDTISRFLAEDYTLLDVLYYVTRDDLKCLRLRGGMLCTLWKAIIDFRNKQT
# Sequence of Mitogen-activated protein kinase 12 (Homo sapiens) (P53778 whole entry): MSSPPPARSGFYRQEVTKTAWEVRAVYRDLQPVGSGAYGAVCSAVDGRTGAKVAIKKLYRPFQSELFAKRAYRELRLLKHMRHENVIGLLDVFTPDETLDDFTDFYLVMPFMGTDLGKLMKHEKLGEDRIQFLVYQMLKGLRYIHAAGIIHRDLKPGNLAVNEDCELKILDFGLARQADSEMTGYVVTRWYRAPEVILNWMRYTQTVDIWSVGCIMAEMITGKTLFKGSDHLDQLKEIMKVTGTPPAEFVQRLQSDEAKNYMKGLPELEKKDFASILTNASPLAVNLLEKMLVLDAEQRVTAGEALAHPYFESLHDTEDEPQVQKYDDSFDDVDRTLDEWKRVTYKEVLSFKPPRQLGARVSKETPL
# Sequence of Aurora kinase C (Homo sapiens) (Q9UQB9 whole entry): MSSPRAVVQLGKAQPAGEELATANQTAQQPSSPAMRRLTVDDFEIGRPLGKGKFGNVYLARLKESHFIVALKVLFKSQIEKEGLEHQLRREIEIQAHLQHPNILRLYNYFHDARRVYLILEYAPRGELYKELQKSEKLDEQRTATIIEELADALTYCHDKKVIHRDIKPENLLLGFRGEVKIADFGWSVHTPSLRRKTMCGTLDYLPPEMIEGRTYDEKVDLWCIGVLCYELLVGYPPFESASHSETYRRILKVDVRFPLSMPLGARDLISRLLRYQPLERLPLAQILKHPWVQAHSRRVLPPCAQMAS
# Sequence of Activin receptor type-1 (Homo sapiens) (Q04771 whole entry): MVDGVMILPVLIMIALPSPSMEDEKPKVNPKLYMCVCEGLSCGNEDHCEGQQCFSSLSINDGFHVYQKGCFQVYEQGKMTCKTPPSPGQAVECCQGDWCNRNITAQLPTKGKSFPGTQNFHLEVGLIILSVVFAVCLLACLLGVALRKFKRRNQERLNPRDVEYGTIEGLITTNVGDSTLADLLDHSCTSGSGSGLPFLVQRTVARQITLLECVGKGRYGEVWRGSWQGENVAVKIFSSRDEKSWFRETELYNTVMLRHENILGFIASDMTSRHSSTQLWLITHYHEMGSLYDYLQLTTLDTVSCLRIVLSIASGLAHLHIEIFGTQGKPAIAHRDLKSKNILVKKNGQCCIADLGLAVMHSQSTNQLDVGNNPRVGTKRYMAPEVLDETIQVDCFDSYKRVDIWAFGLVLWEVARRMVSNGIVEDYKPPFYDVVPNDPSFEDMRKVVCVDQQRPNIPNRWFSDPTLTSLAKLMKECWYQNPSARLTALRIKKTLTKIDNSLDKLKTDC
compound,measurement,setting,value
CS(=O)(=O)N1CCCC(NC(=O)[C@H](CCC2CCCCC2)NC(=O)c2ccc(CNc3ncnc4c3nnn4-c3ccccc3)cc2)C1 (some centres undefined) [SR-301],IC50,[1],1.63 µM (not active)
same,residual activity,[2],88%
same,residual activity,[3],95%
same,residual activity,[4],100%
same,residual activity,[5],100%
same,residual activity,[6],100%
same,residual activity,[7],88%
same,residual activity,[8],100%
same,residual activity,[9],88%
same,residual activity,[10],100%
same,residual activity,[11],100%
same,residual activity,[12],94%
same,residual activity,[13],100%
same,residual activity,[14],100%
same,residual activity,[15],100%
same,residual activity,[16],100%
same,residual activity,[17],78%
same,residual activity,[18],100%
CS(=O)(=O)N1CCCC(NC(=O)[C@H](CCC2CCCCC2)NC(=O)c2ccc(CNC(=O)c3cnc4ccccn34)cc2)C1 (some centres undefined) [SR-302],inhibition,[19],3.03%
same,pIC50,[20],< 4.60
same,inhibition,[21],28.4%
same,residual activity,[4],100%
same,inhibition,[22],20.6%
same,residual activity,[5],89%
same,inhibition,[23],7.22%
same,residual activity,[6],42%
same,residual activity,[7],100%
same,residual activity,[8],100%
same,residual activity,[9],70%
same,residual activity,[10],100%
same,residual activity,[11],72%
same,inhibition,[24],6.47%
same,residual activity,[12],96%
same,inhibition,[25],31.9%
same,pIC50,[26],< 4.60
same,inhibition,[27],20.3%
same,inhibition,[28],8.24%
same,inhibition,[29],-7.56%
same,inhibition,[30],18.9%
same,residual activity,[13],56%
same,residual activity,[14],100%
same,residual activity,[15],100%
same,inhibition,[31],3%
same,inhibition,[32],-2.24%
same,inhibition,[33],13.2%
same,inhibition,[34],12.2%
same,inhibition,[35],5.25%
same,inhibition,[36],20.1%
same,inhibition,[37],3.83%
same,inhibition,[38],18.5%
same,residual activity,[17],98%
same,inhibition,[39],2.38%
same,inhibition,[40],-8.61%
same,inhibition,[41],32%
same,residual activity,[18],100%
same,inhibition,[42],7.14%
same,inhibition,[43],34.9%
same,inhibition,[44],3.62%
same,inhibition,[45],11.3%
